Target mRNA inhibition data for 54 sequences are collected here from the OligoGym collection.

For this data set, the target named is SOD1. The conditions noted are these: ASO.

Values joined by “and” are separate entries in the source; they are usually repeats but may differ in a detail not shown here. Identical values can stand only once. After the bases stand the sugars from the 5' end (letter, count) and the backbone: PS all phosphorothioate, else s phosphorothioate and o phosphodiester by linkage. Methylation of C is not given here. e = 2'-O-(2-methoxyethyl) (MOE); k = constrained ethyl (cEt); d = 2'-deoxy (DNA)

“ATTTCCACCTTTGCCCAAGT (sugars e5 d10 e5, PS)”: the target mRNA inhibition (HepG2, 4 µM) turned out to be 56% and the target mRNA inhibition (HepG2, 12 µM) came out at 84%.
As to “ATTTCTACAGCTAGCAG (sugars e2 k2 d8 k2 e3, PS)”, under “HepG2, 4 µM”, the target mRNA inhibition stood at 66%.
In the case of “CAAAATACAGGTCATTG (sugars e3 k2 d7 k2 e3, PS)”, the target mRNA inhibition (HepG2, 3 µM) came to 23%.
For the setting “HepG2, 4 µM”, “CAAACCAGCACCCCGTCTCC (sugars e5 d10 e5, PS)” returned a target mRNA inhibition of 13%.
As for “CAACATGCCTCTCTTCA (sugars e3 k2 d7 k2 e3, PS)”, the target mRNA inhibition (HepG2, 3 µM) was 3%.
On to “CAAGGGAATGTTTATTG (sugars e2 k2 d8 k2 e3, PS)”, for which, under “HepG2, 4 µM”, the target mRNA inhibition was 43%.
Same read-out and setting: the same measure for “CAAGGGAATGTTTATTG (sugars e2 k2 d9 k2 e2, PS)”: 38%.
For the sequence “CAAGTCATCTGCTTTTT (sugars e3 k2 d7 k2 e3, PS)”, under “HepG2, 3 µM”, the target mRNA inhibition was 42%.
With “CACATCGGCCACACCATCTT (sugars e5 d10 e5, PS)”, the target mRNA inhibition (HepG2, 5 µM) is 27% and 13%.
As for “CACCCCGTCTCCGCGACTAC (sugars e5 d10 e5, PS)”, the target mRNA inhibition (HepG2, 4 µM) is 13%.
Sequence “CACTACAGGTACTTTAAAGC (sugars e5 d10 e5, PS)” showed a target mRNA inhibition (HepG2, 5 µM) of 18%.
“CACTGGTCCATTACTTT (sugars e3 k2 d7 k2 e3, PS)”: where the note is “HepG2, 3 µM”, the target mRNA inhibition worked out at 12%.
As for “CAGACTACATCCAAGGG (sugars e2 k2 d8 k2 e3, PS)”, the target mRNA inhibition is 25% (HepG2, 0.1875 µM); 60% (HepG2, 0.75 µM); 84% (HepG2, 3 µM); 81% (HepG2, 4 µM); 91% (HepG2, 12 µM).
The like results for “CAGACTACATCCAAGGG (sugars e2 k2 d9 k2 e2, PS)” were, in that order, 28%, 55%, 74%, 78% and 91%.
With “CAGACTACATCCAAGGG (sugars e3 k2 d7 k2 e3, PS)”, where the note is “HepG2, 3 µM”, the target mRNA inhibition was 53%.
Take “CAGGATAACAGATGAGT (sugars e2 k2 d9 k2 e2, PS)”: the target mRNA inhibition is, setting by setting: (HepG2, 0.1875 µM) 56%; (HepG2, 0.75 µM) 89%; (HepG2, 3 µM) 93%; (HepG2, 4 µM) 96%; (HepG2, 12 µM) 96%.
On to “CAGGATACATTTCTACAG (sugars e5 d8 e5, linkages s1 o3 s9 o2 s2)”, for which the target mRNA inhibition runs as follows: (A431, 0.12 µM) 2%; (A431, 0.6 µM) 31%; (A431, 3 µM) 9%; (A431, 15 µM) 18%; (HepG2, 0.222 µM) 14%; (HepG2, 0.667 µM) 31%. The target mRNA inhibition reads like this: (HepG2, 2 µM) 54%; (HepG2, 6 µM) 84%.
Regarding “CAGGATACATTTCTACAGCT (sugars e5 d10 e5, linkages s1 o3 s11 o3 s1)”, the target mRNA inhibition runs as follows: (A431, 0.12 µM) 13%; (A431, 0.6 µM) 24%; (A431, 3 µM) 41%; (A431, 15 µM) 62%; (HepG2, 0.222 µM) 38%; (HepG2, 0.667 µM) 70%. Moreover, the target mRNA inhibition came to 95% (HepG2, 2 µM) and 88% (HepG2, 6 µM).
Regarding “CAGGATACATTTCTACAGCT (sugars e5 d10 e5, linkages s1 o4 s10 o2 s2)”, the target mRNA inhibition was 18% (A431, 0.062 µM); 28% (A431, 0.185 µM); 45% (A431, 0.556 µM); 70% (A431, 1.667 µM); 69% (A431, 5 µM); 81% (A431, 15 µM). The target mRNA inhibition reads like this: (SH-SY5Y, 0.062 µM) 0%; (SH-SY5Y, 0.185 µM) 17%; (SH-SY5Y, 0.556 µM) 49%; (SH-SY5Y, 1.667 µM) 62%; (SH-SY5Y, 5 µM) 83%; (SH-SY5Y, 15 µM) 91%.
For “CAGTCAGTCCTTTAATGCTT (sugars e5 d10 e5, PS)”, the target mRNA inhibition (HepG2, 5 µM) was 35% and 29%.
As for “CAGTGTTTAATGTTTAT (sugars e2 k2 d9 k2 e2, PS)”, the target mRNA inhibition (HepG2, 0.1875 µM) is 45%; the target mRNA inhibition (HepG2, 0.75 µM) was found to be 73%; the target mRNA inhibition (HepG2, 3 µM) turned out to be 84%; the target mRNA inhibition (HepG2, 4 µM) was 84%; the target mRNA inhibition (HepG2, 5 µM) is 85%; the target mRNA inhibition (HepG2, 12 µM) is 82% and 87%.
Turning to “CAGTTTCTCACTACAGG (sugars e2 k2 d8 k2 e3, PS)”, the target mRNA inhibition (HepG2, 5 µM) was 38%.
Sequence “CATCTGCTTTTTCATGGACC (sugars e5 d10 e5, PS)” yielded a target mRNA inhibition (HepG2, 3 µM) of 46%.
Where the note is “HepG2, 3 µM”, “CATGCAGGCCTTCAGTC (sugars e3 k2 d7 k2 e3, PS)” showed a target mRNA inhibition of 41%.
On to “CATGCAGGCCTTCAGTCAGT (sugars e5 d10 e5, PS)”, for which the target mRNA inhibition (HepG2, 5 µM) is 37% and 33%.
Where the note is “HepG2, 3 µM”, “CATTGAAACAGACATTT (sugars e3 k2 d7 k2 e3, PS)” gave a target mRNA inhibition of 11%.
Still for that read-out and setting: the same measure for “CCAAGTCATCTGCTTTT (sugars e3 k2 d7 k2 e3, PS)”: 50%.
Where the note is “HepG2, 5 µM”, “CCAATGATGCAATGGTCTCC (sugars e5 d10 e5, PS)” displayed a target mRNA inhibition of 8%.
Regarding “CCAATTACACCACAAGC (sugars e2 k2 d8 k2 e3, PS)”, the target mRNA inhibition (HepG2, 4 µM) amounted to 66%.
“CCACACCTTCACTGGTC (sugars e3 k2 d7 k2 e3, PS)”: the target mRNA inhibition (HepG2, 3 µM) was determined as 36%.
Where the note is “HepG2, 5 µM”, “CCACCAGTGTGCGGCCAATG (sugars e5 d10 e5, PS)” gave a target mRNA inhibition of 22%.
Regarding “CCACCTTTGCCCAAGTC (sugars e3 k2 d7 k2 e3, PS)”, under “HepG2, 3 µM”, the target mRNA inhibition worked out at 91%.
For “CCATACAGGGTTTTTAT (sugars e2 k2 d9 k2 e2, PS)”, the target mRNA inhibition (HepG2, 5 µM) was determined as 34%.
Regarding “CCCAATTACACCACAAG (sugars e2 k2 d9 k2 e2, PS)”, the target mRNA inhibition runs as follows: (HepG2, 0.1875 µM) 25%; (HepG2, 0.75 µM) 52%; (HepG2, 3 µM) 82%; (HepG2, 4 µM) 74%; (HepG2, 12 µM) 97%.
For “CCCAATTACACCACAAG (sugars e3 k2 d7 k2 e3, PS)”, the target mRNA inhibition (HepG2, 3 µM) came out at 29%.
In turn, “CCCACACCTTCACTGG (sugars ekddddddddekekee, linkages s1 o1 s8 o3 s2)” yielded a target mRNA inhibition (A431, 0.12 µM) of 2%; a target mRNA inhibition (A431, 0.6 µM) of 0%; a target mRNA inhibition (A431, 3 µM) of 0%; a target mRNA inhibition (A431, 15 µM) of 12%; a target mRNA inhibition (HepG2, 0.222 µM) of 15%; a target mRNA inhibition (HepG2, 0.667 µM) of 31%. For the same sequence, the target mRNA inhibition is 58% (HepG2, 2 µM) and 81% (HepG2, 6 µM).
In turn, “CCCACACCTTCACTGGT (sugars e3 k2 d7 k2 e3, PS)” gave a target mRNA inhibition (HepG2, 3 µM) of 18%.
For the sequence “CCCCACACCTTCACTG (sugars ekddddddddekekee, linkages s1 o1 s8 o3 s2)”, the target mRNA inhibition amounted to 0% (A431, 0.12 µM); 0% (A431, 0.6 µM); 0% (A431, 3 µM); 0% (A431, 15 µM); 21% (HepG2, 0.222 µM); 36% (HepG2, 0.667 µM). Moreover, the target mRNA inhibition runs as follows: (HepG2, 2 µM) 60%; (HepG2, 6 µM) 75%.
As for “CCCTTCAGCACGCACAC (sugars e2 k2 d9 k2 e2, PS)”, the target mRNA inhibition by setting is: (HepG2, 0.1875 µM) 14%; (HepG2, 0.75 µM) 47%; (HepG2, 3 µM) 82%; (HepG2, 4 µM) 81%; (HepG2, 12 µM) 97%.
For “CCCTTCAGCACGCACACGGC (sugars e5 d10 e5, PS)”, the target mRNA inhibition runs as follows: (HepG2, 0.1875 µM) 17%; (HepG2, 0.75 µM) 26%; (HepG2, 3 µM) 59%; (HepG2, 4 µM) 37%; (HepG2, 12 µM) 83%.
Regarding “CCGAGGTCCTGGTTCCGAGG (sugars e5 d10 e5, PS)”, the target mRNA inhibition (HepG2, 4 µM) stood at 18%.
Still for that read-out and setting: the same measure for “CCGTCGCCCTTCAGCAC (sugars e2 k2 d8 k2 e3, PS)”: 71%.
For “CCGTCTCCGCGACTACTTTA (sugars e5 d10 e5, PS)”, the target mRNA inhibition (HepG2, 4 µM) is 20%.
For the sequence “CCGTGTTTTCTGGATAGAGG (sugars e5 d10 e5, PS)”, where the note is “HepG2, 5 µM”, the target mRNA inhibition was 44% and 37%.
For “CCTCAGACTACATCCAA (sugars e2 k2 d8 k2 e3, PS)”, the target mRNA inhibition (HepG2, 0.1875 µM) was determined as 26%; the target mRNA inhibition (HepG2, 0.75 µM) was determined as 51%; the target mRNA inhibition (HepG2, 3 µM) was 77%; the target mRNA inhibition (HepG2, 4 µM) was determined as 73%; the target mRNA inhibition (HepG2, 12 µM) turned out to be 91%.
Consider “CCTCAGACTACATCCAA (sugars e3 k2 d7 k2 e3, PS)”, for which the target mRNA inhibition (HepG2, 0.1875 µM) was 16%; the target mRNA inhibition (HepG2, 0.75 µM) was determined as 42%; the target mRNA inhibition (HepG2, 3 µM) is 58% and 70%; the target mRNA inhibition (HepG2, 12 µM) came out at 84%.
Sequence “CCTTCACTGGTCCATTA (sugars e3 k2 d7 k2 e3, PS)” registered a target mRNA inhibition (HepG2, 3 µM) of 8%.
On to “CGAAATTGATGATGCCCTGC (sugars e5 d10 e5, PS)”, for which the target mRNA inhibition (HepG2, 4 µM) was determined as 32%.
Still for that read-out and setting: with “CGCAAACCAGCACCCCGTCT (sugars e5 d10 e5, PS)” the figure was 21%.
Consider “CGCCGAGGTCCTGGTTCCGA (sugars e5 d10 e5, PS)”, for which the target mRNA inhibition (HepG2, 4 µM) is 24%.
On the same count and under the same terms, with “CGTCGCCCTTCAGCACG (sugars e2 k2 d9 k2 e2, PS)” the figure was 43%.
The same measure, in the same setting: the same measure for “CTACGACGCAAACCAGCACC (sugars e5 d10 e5, PS)”: 19%.
As to “CTAGCAGGATAACAGAT (sugars e3 k2 d7 k2 e3, PS)”, the target mRNA inhibition (HepG2, 3 µM) is 39%.
Where the note is “HepG2, 4 µM”, “CTAGGCCACGCCGAGGTCCT (sugars e5 d10 e5, PS)” returned a target mRNA inhibition of 39%.
